Laboratory results: the NIST ThermoML archive (doi:10.1016/j.jct.2014.05.019)
± gives the expanded uncertainty stated by the source.

Experiment: refractive index (Na D-line) (dimensionless); xn = mol fraction of the nth substance listed
Conditions: 100 kPa, Liquid, Standard Abbe refractometry

NC(CO)C(=O)[O-].[Na+] (stereo not drawn) [sodium DL-serine] + O
refractive index
Conditions | 303.15 K | 308.15 K | 313.15 K | 318.15 K | 323.15 K | 328.15 K | 333.15 K | 338.15 K | 343.15 K
x1 = 0.009 | 1.34216 ± 0.00031 | 1.34144 ± 0.00031 | 1.34066 ± 0.00031 | 1.33982 ± 0.00031 | 1.33894 ± 0.00031 | 1.33802 ± 0.00031 | 1.33706 ± 0.00031 | 1.33608 ± 0.00031 | 1.33505 ± 0.00031
x1 = 0.018 | 1.35202 ± 0.00031 | 1.35122 ± 0.00031 | 1.35038 ± 0.00031 | 1.3495 ± 0.00031 | 1.34861 ± 0.00031 | 1.34767 ± 0.00031 | 1.34667 ± 0.00031 | 1.34565 ± 0.00031 | 1.34458 ± 0.00031
x1 = 0.028 | 1.36168 ± 0.00031 | 1.36085 ± 0.00031 | 1.36 ± 0.00031 | 1.35908 ± 0.00031 | 1.35806 ± 0.00031 | 1.35706 ± 0.00031 | 1.35612 ± 0.00031 | 1.35511 ± 0.00031 | 1.35407 ± 0.00031
x1 = 0.037 | 1.37103 ± 0.00031 | 1.37015 ± 0.00031 | 1.36925 ± 0.00031 | 1.3683 ± 0.00031 | 1.36729 ± 0.00031 | 1.36632 ± 0.00031 | 1.36532 ± 0.00031 | 1.36426 ± 0.00031 | 1.36322 ± 0.00031
x1 = 0.048 | 1.38012 ± 0.00031 | 1.37921 ± 0.00031 | 1.37827 ± 0.00031 | 1.37725 ± 0.00031 | 1.37623 ± 0.00031 | 1.37526 ± 0.00031 | 1.37424 ± 0.00031 | 1.37311 ± 0.00031 | 1.37204 ± 0.00031
x1 = 0.059 | 1.38919 ± 0.00032 | 1.38826 ± 0.00032 | 1.38724 ± 0.00032 | 1.3862 ± 0.00032 | 1.38512 ± 0.00032 | 1.38406 ± 0.00032 | 1.38298 ± 0.00032 | 1.38194 ± 0.00032 | 1.38083 ± 0.00032
